Assay results reported in US20160150782A1, “USE OF SELECTED PYRIDONE CARBOXAMIDES OR SALTS THEREOF AS ACTIVE SUBSTANCES AGAINST ABIOTIC PLANT STRESS” (BAYER CROPSCIENCE AKTIENGESELLSCHAFT, priority 2013, published 2016).

Columns and labels:
Zea mays (corn) = test: Cold stress test on sprayed greenhouse plants, visual damage scoring (Table 1); type: in vivo; details: efficacy = reduction in damage intensity, dosage 10 g/ha, spray WP, 600 l/ha water
Experimental: Seeds of monocotyledonous and dicotyledonous crop plants are sown in sandy loam in plastic or wood-fiber pots, covered with soil or sand and cultivated in a greenhouse under good growth conditions. The test plants are treated at the early leaf stage (BBCH10-BBCH13). To assure uniform water supply before commencement of stress, the potted plants are supplied with water by dam irrigation prior to substance application.
The inventive compounds, formulated in the form of wettable powders (WP), are sprayed onto the green parts of the plants as an aqueous suspension at an equivalent water application rate of 600 I/ha with addition of 0.2% wetting agent (e.g. agrotin). Substance application is followed immediately by stress treatment of the plants. For this purpose, the wood-fiber pots are transferred in plastic inserts in order to prevent them from subsequently drying out too quickly.
The duration of the respective stress phases is guided mainly by the condition of the stressed control plants. It is ended (by re-irrigating and transfer to a greenhouse with good growth conditions) as soon as irreversible damage is observed on the stressed control plants.
The end of the stress phase is followed by an approx. 4-14-day recovery phase, during which the plants are once again kept under good growth conditions in a greenhouse. The duration of the recovery phase is guided mainly by when the trial plants have attained a state which enables visual scoring of potential effects, and is therefore variable.
Once this juncture has been reached, the intensities of damage are scored visually in comparison to untreated, unstressed controls of the same age. The damage intensity is at first assessed in percent. These values are then used to calculate the efficacy of the test compounds by the following formula:
[formula] • E: Efficacy=reduction in damage intensity as a result of treatment with test substance • DIs: Damage intensity of the stressed control plants • DIt: Damage intensity of the plants treated with test compound […]

Triticum aestivum = test: Drought stress test on sprayed greenhouse plants, visual damage scoring (Table 4); type: in vivo; details: efficacy = reduction in damage intensity, dosage 250 g/ha, spray WP, 600 l/ha water
Experimental: Seeds of monocotyledonous and dicotyledonous crop plants are sown in sandy loam in plastic or wood-fiber pots, covered with soil or sand and cultivated in a greenhouse under good growth conditions. The test plants are treated at the early leaf stage (BBCH10-BBCH13). To assure uniform water supply before commencement of stress, the potted plants are supplied with water by dam irrigation prior to substance application. The inventive compounds, formulated in the form of wettable powders (WP), are sprayed onto the green parts of the plants as an aqueous suspension at an equivalent water application rate of 600 I/ha with addition of 0.2% wetting agent (e.g. agrotin). Substance application is followed immediately by stress treatment of the plants. For this purpose, the wood-fiber pots are transferred in plastic inserts in order to prevent them from subsequently drying out too quickly. Drought stress is induced by gradual drying out under the following conditions: “Day”: 14 hours with illumination at 26-30° C. “Night”: 10 hours without illumination at 18-20° C. The duration of the respective stress phases is guided mainly by the condition of the stressed control plants. […] The end of the stress phase is followed by an approx. 4-14-day recovery phase, during which the plants are once again kept under good growth conditions in a greenhouse. The duration of the recovery phase is guided mainly by when the trial plants have attained a state which enables visual scoring of potential effects, and is therefore variable. […] The damage intensity is at first assessed in percent.

Cc1cc(C(=O)NCCO)c(=O)[nH]c1C(F)(F)C(F)(F)F [compound 265]
E:E (ZEAMX) (Zea mays (corn)): >5
E (TRZAS) (Triticum aestivum): >5
